How the values were obtained:
Format in all cases: in vivo
[1] = tested on: barnyardgrass (Echinochloa crus-galli); assay: Test A preemergence, barnyardgrass; conditions: 0 to 100 scale (0 no effect, 100 complete control)
Procedure, shortened: (§1)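 Greenhouse test: compounds in solvent with surfactant sprayed onto loam–sand soil after planting (preemergence) or onto plants 2-10 cm at the one- to two-leaf stage (postemergence). Injury visually rated versus untreated controls after about 10 days on a 0-100 scale (100 = complete control).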

[2] = tested on: kochia (Kochia scoparia); assay: Test A preemergence, kochia; conditions: 0 to 100 scale (0 no effect, 100 complete control)
Procedure, shortened: as §1

[3] = tested on: ragweed (common ragweed, Ambrosia elatior); assay: Test A preemergence, ragweed; conditions: 0 to 100 scale (0 no effect, 100 complete control)
Procedure, shortened: as §1

[4] = tested on: ryegrass, Italian (Lolium multiflorum); assay: Test A preemergence, Italian ryegrass; conditions: 0 to 100 scale (0 no effect, 100 complete control)
Procedure, shortened: as §1

[5] = tested on: foxtail, giant (Setaria faberii); assay: Test A preemergence, giant foxtail; conditions: 0 to 100 scale (0 no effect, 100 complete control)
Procedure, shortened: as §1

[6] = tested on: pigweed (Amaranthus retroflexus); assay: Test A preemergence, pigweed; conditions: 0 to 100 scale (0 no effect, 100 complete control)
Procedure, shortened: as §1

[7] = tested on: barnyardgrass (Echinochloa crus-galli); assay: Test A postemergence, barnyardgrass; conditions: visual injury, 0 to 100 scale (0 no effect, 100 complete control), approximately 10 days
Procedure, shortened: as §1

[8] = tested on: kochia (Kochia scoparia); assay: Test A postemergence, kochia; conditions: visual injury, 0 to 100 scale (0 no effect, 100 complete control), approximately 10 days
Procedure, shortened: as §1

[9] = tested on: ragweed (common ragweed, Ambrosia elatior); assay: Test A postemergence, ragweed; conditions: visual injury, 0 to 100 scale (0 no effect, 100 complete control), approximately 10 days
Procedure, shortened: as §1

[10] = tested on: ryegrass, Italian (Lolium multiflorum); assay: Test A postemergence, Italian ryegrass; conditions: visual injury, 0 to 100 scale (0 no effect, 100 complete control), approximately 10 days
Procedure, shortened: as §1

[11] = tested on: foxtail, giant (Setaria faberii); assay: Test A postemergence, giant foxtail; conditions: visual injury, 0 to 100 scale (0 no effect, 100 complete control), approximately 10 days
Procedure, shortened: as §1

[12] = tested on: pigweed (Amaranthus retroflexus); assay: Test A postemergence, pigweed; conditions: visual injury, 0 to 100 scale (0 no effect, 100 complete control), approximately 10 days
Procedure, shortened: as §1

[13] = tested on: blackgrass (Alopecurus myosuroides); assay: Test A postemergence, blackgrass; conditions: visual injury, 0 to 100 scale (0 no effect, 100 complete control), approximately 10 days
Procedure, shortened: as §1

[14] = tested on: galium (catchweed bedstraw, Galium aparine); assay: Test A postemergence, galium; conditions: visual injury, 0 to 100 scale (0 no effect, 100 complete control), approximately 10 days
Procedure, shortened: as §1

[15] = tested on: wheat (Triticum aestivum); assay: Test A postemergence, wheat; conditions: visual injury, 0 to 100 scale (0 no effect, 100 complete control), approximately 10 days
Procedure, shortened: as §1

[16] = tested on: corn (Zea mays); assay: Test A postemergence, corn; conditions: visual injury, 0 to 100 scale (0 no effect, 100 complete control), approximately 10 days
Procedure, shortened: as §1

[17] = tested on: rice (Oryza sativa); assay: Test B flooded paddy test, rice; conditions: applied to paddy water, visual rating after 13 to 15 days, scale 0 (no effect) to 100 (complete control)
Procedure, shortened: (§2)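 In-water treatment: compound dosed into 3 cm flood over soil, water level unchanged throughout. Controls run alongside; visual assessment at day 13–15.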

[18] = tested on: sedge, umbrella (small-flower umbrella sedge, Cyperus difformis); assay: Test B flooded paddy test, umbrella sedge; conditions: applied to paddy water, visual rating after 13 to 15 days, scale 0 (no effect) to 100 (complete control)
Procedure, shortened: as §2

[19] = tested on: ducksalad (Heteranthera limosa); assay: Test B flooded paddy test, ducksalad; conditions: applied to paddy water, visual rating after 13 to 15 days, scale 0 (no effect) to 100 (complete control)
Procedure, shortened: as §2

[20] = tested on: barnyardgrass (Echinochloa crus-galli); assay: Test B flooded paddy test, barnyardgrass; conditions: applied to paddy water, visual rating after 13 to 15 days, scale 0 (no effect) to 100 (complete control)
Procedure, shortened: as §2

Structure (SMILES)	Plant response rating, Barnyardgrass ([1]; 125 g ai/ha)	Plant response rating, Barnyardgrass ([1]; 500 g ai/ha)	Plant response rating, Kochia ([2]; 125 g ai/ha)	Plant response rating, Kochia ([2]; 500 g ai/ha)	Plant response rating, Ragweed ([3]; 125 g ai/ha)	Plant response rating, Ragweed ([3]; 500 g ai/ha)	Plant response rating, Ryegrass, Italian ([4]; 125 g ai/ha)	Plant response rating, Ryegrass, Italian ([4]; 500 g ai/ha)	Plant response rating, Foxtail, Giant ([5]; 125 g ai/ha)	Plant response rating, Foxtail, Giant ([5]; 500 g ai/ha)	Plant response rating, Pigweed ([6]; 125 g ai/ha)	Plant response rating, Pigweed ([6]; 500 g ai/ha)	Plant response rating, Barnyardgrass ([7]; 125 g ai/ha)	Plant response rating, Barnyardgrass ([7]; 500 g ai/ha)	Plant response rating, Kochia ([8]; 125 g ai/ha)	Plant response rating, Kochia ([8]; 500 g ai/ha)	Plant response rating, Ragweed ([9]; 125 g ai/ha)	Plant response rating, Ragweed ([9]; 500 g ai/ha)	Plant response rating, Ryegrass, Italian ([10]; 125 g ai/ha)	Plant response rating, Ryegrass, Italian ([10]; 500 g ai/ha)	also measured
O=C1NCC(c2cccc(Oc3ccccn3)c2)C1C(=O)Nc1ccccc1Cl (stereo not drawn) [Compound 69]	0	0	0	0	0	0	0	0	0	50	0	0	0	20	0	0	0	0	0	0	Plant response rating, Foxtail, Giant ([11]; 125 g ai/ha): 0; Plant response rating, Foxtail, Giant ([11]; 500 g ai/ha): 30; Plant response rating, Pigweed ([12]; 125 g ai/ha): 0; Plant response rating, Pigweed ([12]; 500 g ai/ha): 0; Plant response rating, Blackgrass ([13]; 125 g ai/ha): 0; Plant response rating, Blackgrass ([13]; 500 g ai/ha): 0; Plant response rating, Galium ([14]; 125 g ai/ha): 0; Plant response rating, Galium ([14]; 500 g ai/ha): 0; Plant response rating, Wheat ([15]; 125 g ai/ha): 0; Plant response rating, Wheat ([15]; 500 g ai/ha): 0; Plant response rating, Corn ([16]; 125 g ai/ha): 0; Plant response rating, Corn ([16]; 500 g ai/ha): 0; Plant response rating, Rice (Flood) ([17]; 500 g ai/ha): 0; Plant response rating, Sedge, Umbrella (Flood) ([18]; 500 g ai/ha): 0; Plant response rating, Ducksalad (Flood) ([19]; 500 g ai/ha): 70; Plant response rating, Barnyardgrass (Flood) ([20]; 500 g ai/ha): 0
O=C1NCC(c2cccc(Cn3ccc(C(F)(F)F)n3)c2)C1C(=O)Nc1ccc(F)c(F)c1F (stereo not drawn) [Compound 22]	0	30	0	0	0	0	0	0	40	80	0	0	40	60	0	0	0	0	0	0	Plant response rating, Foxtail, Giant ([11]; 125 g ai/ha): 20; Plant response rating, Foxtail, Giant ([11]; 500 g ai/ha): 60; Plant response rating, Pigweed ([12]; 125 g ai/ha): 0; Plant response rating, Pigweed ([12]; 500 g ai/ha): 0; Plant response rating, Blackgrass ([13]; 125 g ai/ha): 0; Plant response rating, Blackgrass ([13]; 500 g ai/ha): 0; Plant response rating, Galium ([14]; 125 g ai/ha): 0; Plant response rating, Galium ([14]; 500 g ai/ha): 0; Plant response rating, Wheat ([15]; 125 g ai/ha): 0; Plant response rating, Wheat ([15]; 500 g ai/ha): 0; Plant response rating, Corn ([16]; 125 g ai/ha): 0; Plant response rating, Corn ([16]; 500 g ai/ha): 0; Plant response rating, Rice (Flood) ([17]; 500 g ai/ha): 0; Plant response rating, Sedge, Umbrella (Flood) ([18]; 500 g ai/ha): 0; Plant response rating, Ducksalad (Flood) ([19]; 500 g ai/ha): 0; Plant response rating, Barnyardgrass (Flood) ([20]; 500 g ai/ha): 30
CC1(COc2cccc(C3CNC(=O)C3C(=O)Nc3ccccc3F)c2)COC1 (stereo not drawn) [Compound 14]	10	80	0	0	0	0	0	0	30	90	0	0	10	60	0	0	0	0	0	0	Plant response rating, Foxtail, Giant ([11]; 125 g ai/ha): 10; Plant response rating, Foxtail, Giant ([11]; 500 g ai/ha): 70; Plant response rating, Pigweed ([12]; 125 g ai/ha): 0; Plant response rating, Pigweed ([12]; 500 g ai/ha): 0; Plant response rating, Blackgrass ([13]; 125 g ai/ha): 0; Plant response rating, Blackgrass ([13]; 500 g ai/ha): 0; Plant response rating, Galium ([14]; 125 g ai/ha): 0; Plant response rating, Galium ([14]; 500 g ai/ha): 0; Plant response rating, Wheat ([15]; 125 g ai/ha): 0; Plant response rating, Wheat ([15]; 500 g ai/ha): 0; Plant response rating, Corn ([16]; 125 g ai/ha): 0; Plant response rating, Corn ([16]; 500 g ai/ha): 0; Plant response rating, Rice (Flood) ([17]; 250 g ai/ha): 0; Plant response rating, Sedge, Umbrella (Flood) ([18]; 250 g ai/ha): 20; Plant response rating, Ducksalad (Flood) ([19]; 250 g ai/ha): 70; Plant response rating, Barnyardgrass (Flood) ([20]; 250 g ai/ha): 0
O=C1NCC(c2cccc(OCc3ccco3)c2)C1C(=O)Nc1ccccc1F (stereo not drawn) [Compound 10]	0	0	0	0	0	0	0	0	0	0	0	0	10	60	0	0	0	0	0	0	Plant response rating, Foxtail, Giant ([11]; 125 g ai/ha): 0; Plant response rating, Foxtail, Giant ([11]; 500 g ai/ha): 30; Plant response rating, Pigweed ([12]; 125 g ai/ha): 0; Plant response rating, Pigweed ([12]; 500 g ai/ha): 0; Plant response rating, Blackgrass ([13]; 125 g ai/ha): 0; Plant response rating, Blackgrass ([13]; 500 g ai/ha): 0; Plant response rating, Galium ([14]; 125 g ai/ha): 0; Plant response rating, Galium ([14]; 500 g ai/ha): 0; Plant response rating, Wheat ([15]; 125 g ai/ha): 0; Plant response rating, Wheat ([15]; 500 g ai/ha): 0; Plant response rating, Corn ([16]; 125 g ai/ha): 0; Plant response rating, Corn ([16]; 500 g ai/ha): 0; Plant response rating, Rice (Flood) ([17]; 250 g ai/ha): 0; Plant response rating, Sedge, Umbrella (Flood) ([18]; 250 g ai/ha): 40; Plant response rating, Ducksalad (Flood) ([19]; 250 g ai/ha): 60; Plant response rating, Barnyardgrass (Flood) ([20]; 250 g ai/ha): 0
O=C1NCC(c2cccc(OCC3OCCO3)c2)C1C(=O)Nc1ccccc1C(F)(F)F (stereo not drawn) [Compound 5]	0	50	0	0	0	0	0	0	30	90	0	30	0	20	0	0	0	0	20	20	Plant response rating, Foxtail, Giant ([11]; 125 g ai/ha): 20; Plant response rating, Foxtail, Giant ([11]; 500 g ai/ha): 50; Plant response rating, Pigweed ([12]; 125 g ai/ha): 0; Plant response rating, Pigweed ([12]; 500 g ai/ha): 0; Plant response rating, Blackgrass ([13]; 125 g ai/ha): 0; Plant response rating, Blackgrass ([13]; 500 g ai/ha): 0; Plant response rating, Galium ([14]; 125 g ai/ha): 0; Plant response rating, Galium ([14]; 500 g ai/ha): 0; Plant response rating, Wheat ([15]; 125 g ai/ha): 0; Plant response rating, Wheat ([15]; 500 g ai/ha): 0; Plant response rating, Corn ([16]; 125 g ai/ha): 0; Plant response rating, Corn ([16]; 500 g ai/ha): 0; Plant response rating, Rice (Flood) ([17]; 250 g ai/ha): 0; Plant response rating, Sedge, Umbrella (Flood) ([18]; 250 g ai/ha): 0; Plant response rating, Ducksalad (Flood) ([19]; 250 g ai/ha): 65; Plant response rating, Barnyardgrass (Flood) ([20]; 250 g ai/ha): 0

— patent US10405547B2, “Substituted cyclic amides as herbicides” (FMC Corporation, priority 2015, dated 2019)
